Assay results published in PubChem BioAssay (NCI).
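Cells were grown in 96-well plates and exposed to each compound for 48 hours at five concentrations; endpoints were interpolated linearly between bracketing concentrations, or set to the highest concentration if not reached. TGI: concentration producing complete growth inhibition.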

Key:
Assay in all cases: growth of human tumour cells (NCI), 48 h
786-0 renal = test system: 786-0 renal
HOP-92 NSCLC = test system: HOP-92 NSCLC
NCI-H23 lung = test system: NCI-H23 lung
SNB-75 CNS = test system: SNB-75 CNS
HL-60(TB) leukemia = test system: HL-60(TB) leukemia
U251 CNS = test system: U251 CNS
MALME-3M melanoma = test system: MALME-3M melanoma
ACHN renal = test system: ACHN renal
IGROV1 ovarian = test system: IGROV1 ovarian
RXF 393 renal = test system: RXF 393 renal
SR leukemia = test system: SR leukemia
UACC-257 melanoma = test system: UACC-257 melanoma
A498 renal = test system: A498 renal
LOX IMVI melanoma = test system: LOX IMVI melanoma
MDA-N = test system: MDA-N
MDA-MB-231 breast = test system: MDA-MB-231 breast
NCI/ADR-RES ovarian = test system: NCI/ADR-RES ovarian
T-47D breast = test system: T-47D breast
TK-10 renal = test system: TK-10 renal

COc1ccc(/C(Cl)=C/c2ccc(Cl)c(Cl)c2)cc1 showed a TGI (786-0 renal) greater than 100 µM, a TGI (HOP-92 NSCLC) of 78.7 µM and a TGI (NCI-H23 lung) of 63 µM. For the same molecule, the TGI (SNB-75 CNS) was 99.7 µM, the TGI (HL-60(TB) leukemia) was 44.9 µM and the TGI (U251 CNS) was 50.4 µM. The TGI (MALME-3M melanoma) was 56.8 µM, the TGI (ACHN renal) was 91.6 µM and the TGI (IGROV1 ovarian) was greater than 100 µM. It also gave a TGI (RXF 393 renal) of 33.6 µM, a TGI (SR leukemia) of 47.9 µM and a TGI (UACC-257 melanoma) of 66.2 µM. For the same molecule, the TGI (A498 renal) was 72.8 µM.

Molecule Cn1c2c(cc(-c3ccccc3)c1=O)COc1ccccc1-2 has a TGI (786-0 renal) greater than 100 µM, a TGI (HOP-92 NSCLC) greater than 100 µM and a TGI (NCI-H23 lung) greater than 100 µM. For the same molecule, the TGI (SNB-75 CNS) was greater than 100 µM, the TGI (HL-60(TB) leukemia) was 56.1 µM and the TGI (U251 CNS) was greater than 100 µM. It also gave a TGI (MALME-3M melanoma) of 50.8 µM, a TGI (ACHN renal) of 91.9 µM and a TGI (IGROV1 ovarian) greater than 100 µM. It also gave a TGI (RXF 393 renal) greater than 100 µM, a TGI (SR leukemia) greater than 100 µM and a TGI (UACC-257 melanoma) greater than 100 µM. For the same molecule, the TGI (LOX IMVI melanoma) was 31.3 µM and the TGI (A498 renal) was greater than 100 µM.

COC(=O)CNC(=O)Nc1cc(N2C(=O)ON3C2C(C)(C)N(O)C3(C)C)ccc1C (stereo not drawn) showed a TGI (786-0 renal) greater than 100 µM, a TGI (MDA-N) greater than 100 µM and a TGI (NCI-H23 lung) greater than 100 µM. For the same molecule, the TGI (SNB-75 CNS) was greater than 100 µM, the TGI (MDA-MB-231 breast) was greater than 100 µM and the TGI (U251 CNS) was greater than 100 µM. It also gave a TGI (MALME-3M melanoma) greater than 100 µM, a TGI (NCI/ADR-RES ovarian) greater than 100 µM and a TGI (ACHN renal) greater than 100 µM. For the same molecule, the TGI (T-47D breast) was greater than 100 µM, the TGI (IGROV1 ovarian) was greater than 100 µM and the TGI (TK-10 renal) was greater than 100 µM. The TGI (RXF 393 renal) was greater than 100 µM, the TGI (SR leukemia) was greater than 100 µM and the TGI (UACC-257 melanoma) was greater than 100 µM. The TGI (LOX IMVI melanoma) was greater than 100 µM.

Molecule CC(C)c1cccc(C(C)C)c1NC1=CC(=O)C(=O)c2ccccc21 has a TGI (786-0 renal) greater than 100 µM, a TGI (HOP-92 NSCLC) greater than 100 µM and a TGI (NCI-H23 lung) greater than 100 µM. For the same molecule, the TGI (HL-60(TB) leukemia) was greater than 100 µM, the TGI (U251 CNS) was greater than 100 µM and the TGI (MALME-3M melanoma) was greater than 100 µM. It also gave a TGI (IGROV1 ovarian) greater than 100 µM, a TGI (TK-10 renal) greater than 100 µM and a TGI (RXF 393 renal) greater than 100 µM. It also gave a TGI (SR leukemia) greater than 100 µM, a TGI (UACC-257 melanoma) greater than 100 µM and a TGI (LOX IMVI melanoma) greater than 100 µM. The TGI (A498 renal) was greater than 100 µM.

Work on Cc1nc(N)sc1C(=O)/C=C/c1ccc([N+](=O)[O-])cc1 yielded a TGI (786-0 renal) greater than 100 µM, a TGI (HOP-92 NSCLC) greater than 100 µM and a TGI (NCI-H23 lung) greater than 100 µM. For the same molecule, the TGI (SNB-75 CNS) was greater than 100 µM, the TGI (HL-60(TB) leukemia) was greater than 100 µM and the TGI (U251 CNS) was greater than 100 µM. For the same molecule, the TGI (MALME-3M melanoma) was greater than 100 µM, the TGI (IGROV1 ovarian) was greater than 100 µM and the TGI (TK-10 renal) was greater than 100 µM. For the same molecule, the TGI (RXF 393 renal) was greater than 100 µM, the TGI (UACC-257 melanoma) was greater than 100 µM and the TGI (LOX IMVI melanoma) was greater than 100 µM. The TGI (A498 renal) was greater than 100 µM.

In the case of COCC12CC(CC1=O)C1C2ON2c3ccccc3C(=O)C12c1ccccc1 (stereo not drawn), the TGI (786-0 renal) is reported as greater than 100 µM, the TGI (HOP-92 NSCLC) is reported as greater than 100 µM and the TGI (NCI-H23 lung) is reported as greater than 100 µM. The TGI (SNB-75 CNS) was greater than 100 µM, the TGI (HL-60(TB) leukemia) was greater than 100 µM and the TGI (U251 CNS) was greater than 100 µM. The TGI (MALME-3M melanoma) was greater than 100 µM, the TGI (ACHN renal) was greater than 100 µM and the TGI (IGROV1 ovarian) was greater than 100 µM. The TGI (RXF 393 renal) was greater than 100 µM, the TGI (SR leukemia) was greater than 100 µM and the TGI (UACC-257 melanoma) was greater than 100 µM. The TGI (A498 renal) was greater than 100 µM.

COC(=O)c1cc(C)n(NC(=O)OC(C)(C)C)c1C was tested, and the TGI (786-0 renal) was greater than 100 µM, the TGI (NCI-H23 lung) was greater than 100 µM and the TGI (SNB-75 CNS) was greater than 100 µM. The TGI (HL-60(TB) leukemia) was greater than 100 µM, the TGI (U251 CNS) was greater than 100 µM and the TGI (MALME-3M melanoma) was greater than 100 µM. The TGI (ACHN renal) was greater than 100 µM, the TGI (IGROV1 ovarian) was greater than 100 µM and the TGI (TK-10 renal) was greater than 100 µM. For the same molecule, the TGI (RXF 393 renal) was greater than 100 µM, the TGI (UACC-257 melanoma) was greater than 100 µM and the TGI (LOX IMVI melanoma) was greater than 100 µM. The TGI (A498 renal) was greater than 100 µM.

C/C(CN1C(=O)c2ccccc2C1=O)=N\NS(=O)(=O)c1ccc(F)cc1 was tested, and the TGI (786-0 renal) was greater than 100 µM, the TGI (NCI-H23 lung) was greater than 100 µM and the TGI (SNB-75 CNS) was greater than 100 µM. The TGI (HL-60(TB) leukemia) was greater than 100 µM, the TGI (U251 CNS) was greater than 100 µM and the TGI (MALME-3M melanoma) was greater than 100 µM. It also gave a TGI (ACHN renal) greater than 100 µM, a TGI (IGROV1 ovarian) greater than 100 µM and a TGI (TK-10 renal) greater than 100 µM. It also gave a TGI (SR leukemia) greater than 100 µM, a TGI (UACC-257 melanoma) greater than 100 µM and a TGI (LOX IMVI melanoma) greater than 100 µM. The TGI (A498 renal) was greater than 100 µM.
